From patent publication US10485236B2, “Triazole derivatives, intermediates thereof and their use as fungicides” (Bayer CropScience Aktiengesellschaft, priority 2015, dated 2019) come the findings set out here.

Each structure is given as a SMILES string. Marks after values point to notes of the source that are not given here.

What is called chromatographic logP is a lipophilicity value derived from retention on a column.

A short description of one data set: Measurement of LogP values by HPLC on reversed phase columns (EEC directive 79/831 Annex V.A8). The class given is physicochemical.
Conditions: not given
As to the method: [table] If more than one Log P value is available within the same method, all the values are given and separated by “+”. Calibration was done with straight-chain alkan2-ones (with 3 to 16 carbon atoms) with known Log P values (measurement of Log P values using retention times with linear interpolation between successive alkanones). Lambda-max-values were determined using UV-spectra from 200 nm to 400 nm and the peak values of the chromatographic signals.
For the compound `CCC(=O)c1ccc(Oc2ccc(Cl)cc2)nc1C(F)(F)F` [V.45], the LogP is 4.20^[a]. For `CCCC(=O)c1ccc(Oc2ccc(Cl)cc2)nc1C(F)(F)F` [V.46], the LogP was 4.59^[a]. In the case of `CC(C)CC(=O)c1ccc(Oc2ccc(Cl)cc2)nc1C(F)(F)F` [V.47], the LogP is 4.98^[a].

As to `CCCCC(=O)c1ccc(Oc2ccc(Cl)cc2)nc1C(F)(F)F` [V.48], the LogP was 5.03^[a]. Regarding `O=C(CCl)c1ccc(Oc2ccccc2)nc1Cl` [VI.03], the LogP is 3.23^[a].

In the case of `O=C(CCl)c1ccc(Oc2ccc(Cl)cc2)nc1Cl` [VI.04], the LogP is 3.72^[a]. With `O=C(CCl)c1cnc(Oc2ccccc2)cc1Cl` [VI.05], the LogP was 3.28^[a].

As for `O=C(CCl)c1cnc(Oc2ccc(Cl)cc2)cc1Cl` [VI.06], the LogP was 3.77^[a]. Same read-out and setting: as for `O=C(CBr)c1ccc(Oc2ccc(Cl)c(Cl)c2)nc1Cl` [VI.07], the figure is 4.58^[a]; as for `O=C(CCl)c1ccc(Oc2ccc(OC(F)(F)F)cc2)nc1Cl` [VI.08], 4.09^[a]. The same measure, in the same setting: as for `O=C(CCl)c1ccc(Oc2ccc(F)cc2)nc1Cl` [VI.09], the figure is 3.39^[a]; as for `O=C(CCl)c1ncc(Oc2ccc(Cl)cc2)nc1Cl` [VI.10], 3.78^[a]; as for `O=C(CCl)c1ccc(Oc2ccc(Cl)cc2)nc1C(F)F` [VI.11], 3.62^[a]. As for `O=C(CCl)c1ccc(Oc2ccc(Cl)cc2)nc1OC(F)(F)F` [VI.12], the LogP was 4.51^[a]. Consider `COc1ccc(Oc2ccc(C(=O)CCl)c(Cl)n2)c(Cl)c1` [VI.13], for which the LogP was 3.71^[a].

`O=C(CBr)c1cnc(Oc2ccc(Cl)cc2)cc1C(F)(F)F` [VI.14]: the LogP was 4.29^[a]. As for `O=C(CBr)c1cnc(Oc2ccc(Br)cc2)cc1C(F)(F)F` [VI.15], the LogP is 4.34^[a]. With `O=C(CCl)c1ccc(Oc2ccc(C(F)F)cc2)nc1Cl` [VI.16], the LogP was 3.42^[a]. Same read-out and setting: in the case of `O=C(CBr)c1ccc(Oc2ccc(C(F)F)cc2)nc1Cl` [VI.17] it was 3.57^[a]. On to `O=C(CBr)c1ccc(Oc2ccc(Br)cc2)nc1C(F)(F)F` [VI.18], for which the LogP was 4.23^[a]. As for `O=C(CCl)c1ccc(Oc2ccc(Br)cc2)nc1C(F)(F)F` [VI.19], the LogP was 4.11^[a]. On to `O=C(CCl)c1ccc(Oc2ccc(Cl)cc2)nc1F` [VI.20], for which the LogP was 3.69^[a]. The same measure, in the same setting: as for `O=C(CCl)c1cnc(Oc2ccc(OC(F)(F)F)cc2)cc1C(F)(F)F` [VI.21], the figure is 4.37^[a].

As to `O=C(CCl)c1cnc(Oc2ccc(C(F)(F)F)cc2)cc1C(F)(F)F` [VI.22], the LogP was 4.21^[a]. Same read-out and setting: as for `O=C(CCl)c1cnc(Oc2ccc(Br)cc2)cc1C(F)(F)F` [VI.23], the figure is 4.16^[a].

For `O=C(CBr)c1cnc(Oc2ccc(Cl)cc2F)cc1C(F)(F)F` [VI.24], the LogP is 4.34^[a]. As for `O=C(CCl)c1cnc(Oc2ccc(Cl)cc2F)cc1C(F)(F)F` [VI.25], the LogP is 4.15^[a].

As to `O=C(CCl)c1cnc(Oc2ccc(C(F)F)cc2)cc1C(F)(F)F` [VI.26], the LogP was 3.76^[a]. Same read-out and setting: as for `O=C(CBr)c1cnc(Oc2ccc(C(F)F)cc2)cc1C(F)(F)F` [VI.27], the figure is 3.99^[a].

As to `O=C(CCl)c1ccc(Oc2ccc(C(F)(F)F)cc2)nc1C(F)(F)F` [VI.28], the LogP was 4.19^[a]. On the same count and under the same terms, as for `O=C(CCl)c1ccc(Oc2ccc(S(F)(F)(F)(F)F)cc2)nc1C(F)(F)F` [VI.29], the figure is 4.29^[a].

Take `O=C(CCl)c1ccc(Oc2ccc(S(F)(F)(F)(F)F)cc2)nc1Cl` [VI.30]: the LogP was 4.21^[a]. In the case of `O=C(CCl)c1ccc(Oc2c(F)cc(Cl)cc2F)nc1C(F)(F)F` [VI.31], the LogP is 4.26^[a]. Regarding `O=C(CBr)c1ccc(Oc2c(F)cc(Cl)cc2F)nc1C(F)(F)F` [VI.32], the LogP was 4.18^[a].

The same data set, now with this note: reversed phase HPLC column, method [a]; compounds of formula (VI), Table 3.
Turning to `O=C(CCl)c1ccc(Oc2ccc(Cl)cc2)nc1C(F)(F)F` [VI.01, 2-chloro-1-[6-(4-chlorophenoxy)-2-(trifluoromethyl)-3-pyridyl]ethanone], the chromatographic logP is 4.01.
